Assay results from the supplement of paper PMC10307832.

Compound: CC1(C)CNc2cc(NC(=O)c3cccnc3NCc3ccncc3)ccc21 [Motesanib] + Cc1nc(Nc2ncc(C(=O)Nc3c(C)cccc3Cl)s2)cc(N2CCN(CCO)CC2)n1 [Dasatinib] (partner 0.075 µM)
Assay: relative viability (nuclei count vs DMSO), 5 days (fraction); higher = more cells survive
Details: first compound 0.01 µM
How it was run: (§1)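 After 5 days of treatment, lung cancer cells in 1536-well plates were fixed and stained in a single step (final 0.05% Triton X-100, 1% formaldehyde, 1 ug/ml Hoechst) and their nuclei counted on 4× images. Treatment had been applied by pin tool the day after seeding as one drug alone or as a fixed anchor-drug dose with five library-drug doses (not always all listed) in √10 steps. Relative viability is the nuclei count of treated wells divided by that of vehicle wells, and values are medians of duplicate plates.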

Cell Line | relative viability
LCLC-97TM1 | 0.838
NCI-H2009 | 0.286
A-427 | 0.606
NCI-H441 | 0.594
NCI-H661 | 0.818
NCI-H1734 | 0.515
NCI-H460 | 0.406
NCI-H2347 | 0.299
SK-LU-1 | 0.189
NCI-H1395 | 0.425
201T | 0.575
NCI-H1915 | 0.32
HCC-827 | 0.308
LXF-289 | 0.258
NCI-H23 | 0.881
NCI-H647 | 0.194
CAL-12T | 0.414

Cell Line | relative viability
NCI-H1651 | 0.408
EPLC-272H | 0.344
NCI-H2228 | 0.497
NCI-H1355 | 0.74
NCI-H3122 | 0.705
NCI-H1437 | 0.266
NCI-H1755 | 0.381
NCI-H2023 | 0.576
HCC-15 | 0.648
NCI-H1793 | 0.393
PC-14 | 0.288
EKVX | 0.592
LC-2-ad | 0.539
NCI-H1944 | 0.205
NCI-H1975 | 0.363
RERF-LC-KJ | 0.92
ABC-1 | 0.518

Same assay, conditions: first compound 0.03162 µM

Cell Line | relative viability
LCLC-97TM1 | 0.801
NCI-H2009 | 0.245
A-427 | 0.724
NCI-H441 | 0.627
NCI-H661 | 0.842
NCI-H1734 | 0.448
NCI-H460 | 0.481
NCI-H2347 | 0.302
SK-LU-1 | 0.189
NCI-H1395 | 0.476
201T | 0.519
NCI-H1915 | 0.329
HCC-827 | 0.307
LXF-289 | 0.148
NCI-H23 | 0.737
NCI-H647 | 0.169
CAL-12T | 0.339

Cell Line | relative viability
NCI-H1651 | 0.339
EPLC-272H | 0.405
NCI-H2228 | 0.49
NCI-H1355 | 0.548
NCI-H3122 | 0.825
NCI-H1437 | 0.22
NCI-H1755 | 0.426
NCI-H2023 | 0.476
HCC-15 | 0.53
NCI-H1793 | 0.388
PC-14 | 0.286
EKVX | 0.462
LC-2-ad | 0.575
NCI-H1944 | 0.215
NCI-H1975 | 0.328
RERF-LC-KJ | 0.803
ABC-1 | 0.544

Same assay, conditions: first compound 0.1 µM

Cell Line | relative viability
LCLC-97TM1 | 0.797
NCI-H2009 | 0.304
A-427 | 0.663
NCI-H441 | 0.604
NCI-H661 | 0.833
NCI-H460 | 0.525
NCI-H2347 | 0.344
SK-LU-1 | 0.183
NCI-H1395 | 0.42
201T | 0.559
NCI-H1915 | 0.303
HCC-827 | 0.293
LXF-289 | 0.257
NCI-H23 | 0.662
NCI-H647 | 0.151
CAL-12T | 0.479

Cell Line | relative viability
NCI-H1651 | 0.384
NCI-H2228 | 0.549
NCI-H1355 | 0.717
NCI-H3122 | 0.677
NCI-H1437 | 0.383
NCI-H1755 | 0.463
NCI-H2023 | 0.575
HCC-15 | 0.648
NCI-H1793 | 0.376
PC-14 | 0.256
EKVX | 0.527
LC-2-ad | 0.745
NCI-H1944 | 0.25
NCI-H1975 | 0.397
RERF-LC-KJ | 0.806
ABC-1 | 0.605

Same assay, conditions: first compound 0.3162 µM

Cell Line | relative viability
LCLC-97TM1 | 0.86
NCI-H2009 | 0.314
A-427 | 0.721
NCI-H441 | 0.613
NCI-H661 | 0.977
NCI-H1734 | 0.463
NCI-H460 | 0.63
NCI-H2347 | 0.3
SK-LU-1 | 0.198
NCI-H1395 | 0.443
201T | 0.595
NCI-H1915 | 0.312
HCC-827 | 0.274
LXF-289 | 0.256
NCI-H23 | 0.892
NCI-H647 | 0.191
CAL-12T | 0.522

Cell Line | relative viability
NCI-H1651 | 0.451
EPLC-272H | 0.421
NCI-H2228 | 0.495
NCI-H1355 | 0.732
NCI-H3122 | 0.893
NCI-H1437 | 0.575
NCI-H1755 | 0.48
NCI-H2023 | 0.59
HCC-15 | 0.758
NCI-H1793 | 0.416
PC-14 | 0.298
EKVX | 0.654
LC-2-ad | 0.503
NCI-H1944 | 0.225
NCI-H1975 | 0.324
RERF-LC-KJ | 0.811
ABC-1 | 0.65

Same assay, conditions: first compound 1 µM

Cell Line | relative viability
LCLC-97TM1 | 0.773
NCI-H2009 | 0.346
A-427 | 0.81
NCI-H441 | 0.642
NCI-H661 | 0.861
NCI-H1734 | 0.405
NCI-H460 | 0.626
NCI-H2347 | 0.305
SK-LU-1 | 0.209
NCI-H1395 | 0.417
201T | 0.535
NCI-H1915 | 0.279
HCC-827 | 0.228
LXF-289 | 0.267
NCI-H23 | 0.746
NCI-H647 | 0.221
CAL-12T | 0.546

Cell Line | relative viability
NCI-H1651 | 0.432
EPLC-272H | 0.287
NCI-H2228 | 0.502
NCI-H1355 | 0.684
NCI-H3122 | 0.916
NCI-H1437 | 0.405
NCI-H1755 | 0.466
NCI-H2023 | 0.662
HCC-15 | 0.723
NCI-H1793 | 0.405
PC-14 | 0.319
EKVX | 0.505
LC-2-ad | 0.496
NCI-H1944 | 0.231
NCI-H1975 | 0.312
RERF-LC-KJ | 0.839
ABC-1 | 0.619

Compound: CC1(C)CNc2cc(NC(=O)c3cccnc3NCc3ccncc3)ccc21 [Motesanib] + O=C(CCCCCCC(=O)Nc1ccccc1)NO [Vorinostat] (partner 1 µM)
Assay: as above
Details: first compound 0.01 µM
How it was run: as §1

Cell Line | relative viability
LCLC-97TM1 | 0.796
NCI-H2009 | 0.671
A-427 | 0.96
NCI-H441 | 0.527
NCI-H661 | 0.775
NCI-H1734 | 0.741
NCI-H460 | 0.635
NCI-H2347 | 0.538
SK-LU-1 | 0.792
NCI-H1395 | 0.56
201T | 0.929
NCI-H1915 | 0.603
HCC-827 | 0.759
LXF-289 | 0.766
NCI-H23 | 0.597
NCI-H647 | 0.506
CAL-12T | 0.797

Cell Line | relative viability
NCI-H1651 | 0.475
EPLC-272H | 0.385
NCI-H2228 | 0.667
NCI-H1355 | 0.635
NCI-H3122 | 0.962
NCI-H1437 | 0.927
NCI-H1755 | 0.672
NCI-H2023 | 0.729
HCC-15 | 0.883
NCI-H1793 | 0.836
PC-14 | 0.702
EKVX | 0.777
LC-2-ad | 0.694
NCI-H1944 | 0.52
NCI-H1975 | 0.738
RERF-LC-KJ | 0.625
ABC-1 | 0.786

Same assay, conditions: first compound 0.03162 µM

Cell Line | relative viability
LCLC-97TM1 | 0.884
NCI-H2009 | 0.636
A-427 | 0.87
NCI-H441 | 0.697
NCI-H661 | 0.737
NCI-H1734 | 0.821
NCI-H460 | 0.696
NCI-H2347 | 0.555
SK-LU-1 | 0.745
NCI-H1395 | 0.526
201T | 0.974
NCI-H1915 | 0.489
HCC-827 | 0.945
LXF-289 | 0.719
NCI-H23 | 0.549
NCI-H647 | 0.575
CAL-12T | 0.847

Cell Line | relative viability
NCI-H1651 | 0.605
EPLC-272H | 0.518
NCI-H2228 | 0.539
NCI-H1355 | 0.659
NCI-H3122 | 1.05
NCI-H1437 | 0.73
NCI-H1755 | 0.759
NCI-H2023 | 0.606
HCC-15 | 0.843
NCI-H1793 | 0.776
PC-14 | 0.867
EKVX | 0.819
LC-2-ad | 0.694
NCI-H1944 | 0.562
NCI-H1975 | 0.616
RERF-LC-KJ | 0.711
ABC-1 | 1.22

Same assay, conditions: first compound 0.1 µM

Cell Line | relative viability
LCLC-97TM1 | 0.495
NCI-H2009 | 0.823
A-427 | 0.913
NCI-H441 | 0.7
NCI-H661 | 0.766
NCI-H1734 | 0.813
NCI-H460 | 0.716
NCI-H2347 | 0.527
SK-LU-1 | 0.839
NCI-H1395 | 0.707
201T | 1.08
NCI-H1915 | 0.479
HCC-827 | 0.881
LXF-289 | 0.78
NCI-H23 | 0.516
NCI-H647 | 0.567
CAL-12T | 0.692

Cell Line | relative viability
NCI-H1651 | 0.575
EPLC-272H | 0.448
NCI-H2228 | 0.737
NCI-H1355 | 0.707
NCI-H3122 | 1.08
NCI-H1437 | 0.759
NCI-H1755 | 0.808
NCI-H2023 | 0.615
HCC-15 | 0.866
NCI-H1793 | 0.725
PC-14 | 0.778
EKVX | 0.777
LC-2-ad | 0.811
NCI-H1944 | 0.51
NCI-H1975 | 0.707
RERF-LC-KJ | 0.745
ABC-1 | 0.939

Same assay, conditions: first compound 0.3162 µM

Cell Line | relative viability
LCLC-97TM1 | 0.858
NCI-H2009 | 0.729
A-427 | 0.89
NCI-H441 | 0.764
NCI-H661 | 0.797
NCI-H1734 | 0.805
NCI-H460 | 0.726
NCI-H2347 | 0.704
SK-LU-1 | 0.743
NCI-H1395 | 0.794
201T | 1.01
NCI-H1915 | 0.544
HCC-827 | 0.666
LXF-289 | 0.932
NCI-H23 | 0.741
NCI-H647 | 0.769
CAL-12T | 0.795

Cell Line | relative viability
NCI-H1651 | 0.583
EPLC-272H | 0.479
NCI-H2228 | 0.528
NCI-H1355 | 0.702
NCI-H3122 | 1.12
NCI-H1437 | 0.799
NCI-H1755 | 0.945
NCI-H2023 | 0.838
HCC-15 | 0.875
NCI-H1793 | 0.892
PC-14 | 0.806
EKVX | 0.895
LC-2-ad | 0.808
NCI-H1944 | 0.634
NCI-H1975 | 0.739
RERF-LC-KJ | 0.808
ABC-1 | 1.24

Same assay, conditions: first compound 1 µM

Cell Line | relative viability
LCLC-97TM1 | 0.575
NCI-H2009 | 0.71
A-427 | 0.88
NCI-H441 | 0.792
NCI-H661 | 0.883
NCI-H1734 | 0.865
NCI-H460 | 0.666
NCI-H2347 | 0.621
SK-LU-1 | 0.813
NCI-H1395 | 0.677
201T | 1.01
NCI-H1915 | 0.527
HCC-827 | 0.885
LXF-289 | 0.751
NCI-H23 | 0.51
